Test results published in patent publication US20070099854A1, “Use of pentadienoic acid derivatives for the treatment of hyperuricemia” (priority 2003, published 2007).

Tests used:
[1] = tested on: plasma uric acid concentration; assay: Hypouricemic effect of compound A in healthy male volunteers, single oral administration; assay type: in vivo, human (healthy male volunteers); conditions: at 24 hours
Experimental: Hypouricemic effect of compound A in healthy male volunteers
Forty-eight healthy male volunteers received orally either EMD or a placebo as a single administration in the morning. Six doses were administered 50 mg, 100 mg, 200 mg, 400 mg, 800 mg and 1200 mg once daily. In each group of dose, 6 subjects received compound A and 2 subjects received a placebo. Plasma uric acid concentrations were assessed in all dose groups.
The drop of plasma uric acid concentration was around 45% for the lowest tested dose (50 mg) and the maximum effect was observed from the 800 mg dose (80%).
FIG. 1: Mean plasma uric acid concentration in each group of dose before and 24 hours after drug intake (single dose) in subjects receiving compound A.

melting point	Compound	further results
226 to 228 °C	CC(/C=C/C1=Cc2ccccc2OC1)=C\C(=O)O [Example 3b]	–
164 to 166 °C	CC(/C=C/C1=Cc2ccccc2OC1(C)C)=C\C(=O)O [Example 4b]	–
224 to 226 °C	CC(=C/C(=O)O)/C=C/C1=Cc2ccccc2OC1 [Example 12b]	–
176 °C	CC(=C/C(=O)O)/C=C/C1=Cc2ccccc2OC1(C)C [Example 5b]	–

More lines, now with the values behind:

Compound	melting point	further results
CC1=C(/C=C/C(C)=C/C(=O)O)COc2ccccc21 [Example 11b]	216 to 218 °C	–
CCOC(=O)/C=C(C)/C=C/C1=Cc2ccccc2OC1 [Example 3a]	110 to 112 °C	–
COc1ccc2c(c1)C(/C=C/C(C)=C/C(=O)O)=CC(C)(C)CO2 [compound A, (2E,4E)-5-(3,3-dimethyl-7-methoxy-2,3-dihydrobenzoxepin-5-yl)-3-methylpenta-2,4-dienoic acid]	–	drop of plasma uric acid concentration ([1]; 50 mg (lowest tested dose)): around 45%; change in plasma uric acid concentration ([1]; all dose groups 50-1200 mg): dose dependant decrease; drop of plasma uric acid concentration (maximum effect) ([1]; from the 800 mg dose): 80%
CC(/C=C/C1=Cc2ccccc2OC1c1ccccc1)=C\C(=O)O (centres unmarked) [Example 14b]	200 to 202 °C	–
CC(/C=C/C1=C(c2ccccc2)c2ccccc2OC1)=C\C(=O)O [Example 7b]	258 to 260 °C	–
